Laboratory results taken from patent US8785500B2, “Intranasal administration of ketamine to treat depression” (priority 2006, dated 2014).

What was measured:
[1] = system: women after abdominal gynecological surgery with lidocaine epidural blockade; details: cited from earlier work
NMDA receptor = details: cited from earlier work
[2] = Intranasal versus intravenous ketamine plasma levels; details: human, other: intranasal
Experimental: The slow infusion of ketamine produces gradually increasing plasma levels during the infusion period. Dose-wise, the typical ketamine dose for surgical induction is between 1.0-2.0 mg/kg, with additional ketamine used to sustain anesthesia.

[3] = system: subjects with DSM-IV treatment-resistant major depression; assay: Randomized, placebo-controlled, double-blind crossover study of a single intravenous ketamine hydrochloride infusion; details: for effect size for the drug difference (d), HDRS: ketamine vs placebo
From the text: Treatment-resistant major depression is a relatively common occurrence in clinical practice, with up to 50 to 60% of patients not achieving adequate response following antidepressant treatment. […] If the depression has not benefited from at least two adequate trials of medications from different classes in the current episode, clinically significant resistance is present. Several schemes to “stage” the degree of resistance have been proposed. The most widely accepted scheme uses the staging system of Thase and Rush. The stages of resistance are as follows:
Thus, the patient population to be treated by the present invention may be defined according to any one or more of the above schemes. After a 2-week drug-free period, exemplary subjects having treatment-resistant depression were given an intravenous infusion of either ketamine hydrochloride (0.5 mg/kg) or placebo on 2 test days, a week apart. Subjects were rated at baseline and at 40, 80 minutes, 110 minutes, 230 minutes and days 1, 2, 3 and 7 post-infusion. The outcome of the treatment was measured using changes in scores on the primary efficacy to measure the 21-item Hamilton Depression Rating Scale (HDRS).
Men and women, ages 18 to 65 years, who were inpatients with a diagnosis of major depressive disorder recurrent without psychotic features as diagnosed by means of the Structured Clinical Interview for Axis I DSM-IV Disorders—Patient Version 28 were eligible to participate.
All subjects were in good physical health as determined by medical history, physical exam, blood labs, electrocardiogram, chest x-ray, urinalysis and toxicology. Subjects were free of comorbid substance abuse or dependence for at least 3 months and judged clinically not to be a serious suicidal risk.
After a 2 week drug-free period, 18 subjects with DSM-IV major depression were randomized to an intravenous infusion of either ketamine hydrochloride (0.5 mg/kg) or placebo (saline solution) given over 40 minutes with a Baxter infusion pump on 2 test days, a week apart, in a double-blind, crossover study. Seventeen subjects received ketamine and 14 received placebo.
Subjects were rated 60 minutes prior to the infusion and at 40, 80, 110, and 230 minutes as well as 1, 2, 3, and 7 days after the infusion. The 21-item HDRS, Beck Depression Inventory Scale (BDI; [31]), Brief Psychiatric Rating Scale-positive symptoms (BPRS; [32]), Young Mania Rating Scale (YMRS; [33]), and the visual analogue scales score (VAS-depression; [34]). Raters, who trained together to establish reliability, performed patient ratings. […] Subjects were rated by a separate set of raters to help maintain blind to the infusion procedures and resulting side effects. The first set of raters administered the scales on the day of infusion (60 minutes prior to the infusion and 40, 80, 110 post-infusion). From 230 minutes onwards (days 1 through 7), a separate group of raters rated the subjects. Clinical response was defined as a 50% or greater decrease in the HDRS rating scale from baseline and remission as HDRS≦7 [35].
A full factorial, fixed effects linear mixed model with a compound symmetry covariance structure was used to examine the differences between ketamine and placebo over 9 time points from baseline to 7 days. Restricted maximum likelihood estimation was used to estimate missing values. Significant effects were examined with simple effects tests. The 21-item HDRS was the primary outcome measure. Scores from the BDI, BPRS, YMRS, and VAS were secondary outcome measures. Secondary analysis included examination of the individual items of the HDRS. Significance was evaluated at α<0.05, two-tailed.

[4] = system: men and women with intractable central neuropathic pain; details: cited from earlier work; for pain disability and subjective physical and mental function: 75 mg transdermally over 24 hours for 7 days
[5] = in vivo; cited from earlier work
male Wistar rats = details: single dose; cited from earlier work
[6] = system: subjects with major depression; details: cited from earlier work
[7] = system: chronic pain patients with breakthrough pain (BTP); details: 10-50 mg intranasal; cited from earlier work
[8] = in vivo; cited from earlier work; remark: listed apart in the source
[9] = system: non-NMDA voltage-gated potassium currents; details: in vitro; cited from earlier work
major depression [10] = details: reviews of antidepressant trials; cited from earlier work
[11] = clinical trials; cited from earlier work
major depression [12] = details: administered orally; cited from earlier work
[13] = both, human, in vivo, intravenous, 0.5 mg/kg
[14] = one day after infusion, intent to treat, n=17

For `CNC1(c2ccccc2Cl)CCCCC1=O` (racemic) [ketamine, 2-(2-chlorophenyl)-2-(methylamino)-cyclohexanone], the side effects ([1]; transdermal 25 mg over 24 hrs) is given as “no side effects”, the “time to rescue analgesic” value ([1]; transdermal patch 25 mg/24 hours, placebo 94±54) is given as 230 ± 112 min and the “affinity for the NMDA receptor in contrast to memantine” value (NMDA receptor) is given as “higher affinity for the NMDA receptor”. For the same compound, the “affinity for the NMDA receptor versus other sites” value (NMDA receptor) was “several fold higher than that for other sites”, the “open channel blocking/unblocking kinetics in contrast to memantine” value (NMDA receptor) was “much slower open channel blocking/unblocking kinetics” and the “i.v. dose roughly equivalent to the intranasal dose used for pain (50 mg)” value [2] was ~0.1 mg/kg. The “onset of improvement in depression post-infusion” value ([3]; HDRS vs placebo) was ≤ 2 h, the “effect size for the drug difference (d), HDRS” value ([3]; after 1 week, completers) was 0.68 and the “effect size for the drug difference (d), HDRS” value ([3]; after 24 hours, completers) was 1.46. The “only time at which BPRS positive symptoms were worse on ketamine than placebo” value [3, 13] was 40 min, the “only time at which YMRS scores were worse (higher) on ketamine than placebo” value [3, 13] was 40 min and the “time beyond which euphoria or derealization/depersonalization did not persist” value [3, 13] was ≤ 110 min. For the same compound, the “earliest improvements, depressed mood and guilt (HDRS items)” value ([3]; completers) was 40 min, the “individual HDRS symptoms with only a significant main effect for drug” value ([3]; completers) was “symptoms improved on ketamine for suicide, insomnia, general somatic symptoms, genital symptoms, and hypochondriasis” and the “individual HDRS symptoms with significant time by drug interaction” value ([3]; completers) was “Depressed mood, guilt, work and interests, and psychic anxiety improved significantly”. The “time at which motor retardation and gastrointestinal symptoms (HDRS items) were worse” value ([3]; completers) was 40 min, the “time by which HDRS scores were lower on ketamine” value ([3]; first phase data only, significant through the seventh day) was 80 min and the “baseline HDRS in the second phase of those who received ketamine first (carryover)” value ([3]; first-phase baseline 24.9±6.9, one week after infusion) was 17.2±6.9. For the same compound, the “Peak change in BPRS positive symptoms on Ketamine, Group” value ([3]; group mean ±) was “+3.1 ± 3.4”, the “% Change in HDRS (day 1) Ketamine, Group” value ([3]; group mean ±, 0.5 mg/kg i.v. over 40 min, baseline to day 1) was −56.2 ± 20.4% and the “side effects occurring more commonly on ketamine than placebo” value ([3]; in vivo) was “perceptual disturbances, confusion, elevations in blood pressure, euphoria, dizziness, and increased libido”. The “time after infusion within which side effects ceased” value ([3]; majority of side effects) was ≤ 80 min, the “subjects meeting remission criteria (HDRS≦7)” value [3, 14] was 29% and the “subjects meeting response criteria (50% or greater decrease in HDRS)” value [3, 14] was 71%. For the same compound, the “subjects who maintained response at least 2 weeks” value ([3]; single infusion 0.5 mg/kg) was 2 subjects, the “subjects who maintained response for at least 1 week” value ([3]; single infusion 0.5 mg/kg) was 35% and the “time from which VAS depression (mood) improved on ketamine” value ([3]; through 7 days) was 40 min. For the same compound, the “time from which self-rated BDI improved on ketamine” value ([3]; through 7 days, completers) was 40 min, the “pain disability and subjective physical and mental function” value [4] was “significant improvement in pain disability, and subjective physical and mental function” and the “intranasal plasma levels (pain) lower than in intravenous studies in depression” value [5] was 3-4 fold. For the same compound, the “time for which induction of behavioral despair is interfered with” value (male Wistar rats) was “up to 10 days”, the “patients with 50% or greater decrease in HDRS during the 3-day follow-up period” value ([6]; Berman et al.) was 4 of 8 and the “onset of antidepressant effect post-infusion” value ([6]; previous study (Berman et al.)) was 230 min. For the same compound, the antidepressant effect ([6]; single intravenous dose, 7 subjects) was “rapid and short-lived antidepressant effect”, the “breakthrough pain versus placebo” value [7] was “lower BTP” and the side effects [7] was “very few side effects”. The half-life [8] was “approximately 2 hours” and the “effect on non-NMDA voltage-gated potassium currents” value [9] was “only reduces non-NMDA voltage-gated potassium currents at much higher than reported in patients anesthetized with ketamine”.
In the case of `CN[C@]1(c2ccccc2Cl)CCCCC1=O` [S(+)-ketamine], the “pain intensity (Visual Analog Scale)” value ([4]; 50 mg, 75 mg or placebo) is given as “no change among groups”, the “pain disability and subjective physical and mental function” value [4] is given as “significant improvement in pain disability, and subjective physical and mental function” and the “dissociation or psychotic symptoms” value ([4]; in vivo) is given as “no reports of dissociation or psychotic symptoms”.
In the case of `CC(NC(C)(C)C)C(=O)c1cccc(Cl)c1` (centres unmarked) [bupropion], the “response rates at week 8” value (major depression [10]) is given as 62%.
For `Nc1nnc(-c2cccc(Cl)c2Cl)c(N)n1` [lamotrigine], the antidepressant properties [11] is listed as “found to have antidepressant properties”.
In the case of `CC12CC3CC(C)(C1)CC(N)(C3)C2` [memantine], the antidepressant effects (major depression [12]) is given as “did not show the low- to moderate-affinity non-competitive NMDA antagonist memantine, administered orally, to have antidepressants effects”.
In the case of `NC1(c2ccccc2Cl)CCCCC1=O` (centres unmarked) [norketamine], the half-life [8] is given as ~5 h.
For `Nc1nc2ccc(OC(F)(F)F)cc2s1` [riluzole], the antidepressant properties [11] is given as “found to have antidepressant properties”.
In the case of `COc1ccc(C(CN(C)C)C2(O)CCCCC2)cc1` (centres unmarked) [venlafaxine], the “response rates at week 8” value (major depression [10]) is listed as 65%.
